Structures can show the parent of a compound that is named as a salt.
Target: T1, bNOS (Homo sapiens, UniProt P29475)
T1 construct: purchased Axxora GmbH
Experiment: Griess assay: NO-synthase converts L-arginine to L-citrullin and NO, activity measured by nitrite formation
Assay type: biochemical
Details: maximum inhibition reached; recombinant human isoenzyme, 30 min at 37° C., controls without inhibitor = 100%
Procedure: Although the compound is known from the literature Niwa, H., 1957, Tohoku Yakka Daigaku, 4, 69-78), as yet no NOS-inhibiting action has been described.
In both FIGS. 1 and 2 the bNOS activity is measured by means of nitrite formation. Nitrite is the end product of nitrogen monoxide in oxygen-containing, aqueous solution. Control incubations with all the cofactors, but without inhibitor addition, were 100% established. These are mean values +/− standard deviation of three incubations, in each case measured twice.
The incubations of the synthesized substances with the NO-synthases were carried out as follows: […]
Following preparation, the batches were incubated for 20 min (iNOS and eNOS) or 30 min (bNOS) in the shaking water bath at 37° C. […] After incubating for […] at room temperature, the solutions were measured at a wavelength of 543 nm and the indicated non-enzyme-containing sample was used as the blank reading. […] The nitrite can be quantitatively determined by reaction with sulphanilamide and naphthyl ethylene diamine in an acid medium. This leads to an azo dye, which can be measured spectrophotometrically. […] The relative nitrite formations were determined for the control batches containing no inhibitors. […]

T1 sequence (P29475 whole entry): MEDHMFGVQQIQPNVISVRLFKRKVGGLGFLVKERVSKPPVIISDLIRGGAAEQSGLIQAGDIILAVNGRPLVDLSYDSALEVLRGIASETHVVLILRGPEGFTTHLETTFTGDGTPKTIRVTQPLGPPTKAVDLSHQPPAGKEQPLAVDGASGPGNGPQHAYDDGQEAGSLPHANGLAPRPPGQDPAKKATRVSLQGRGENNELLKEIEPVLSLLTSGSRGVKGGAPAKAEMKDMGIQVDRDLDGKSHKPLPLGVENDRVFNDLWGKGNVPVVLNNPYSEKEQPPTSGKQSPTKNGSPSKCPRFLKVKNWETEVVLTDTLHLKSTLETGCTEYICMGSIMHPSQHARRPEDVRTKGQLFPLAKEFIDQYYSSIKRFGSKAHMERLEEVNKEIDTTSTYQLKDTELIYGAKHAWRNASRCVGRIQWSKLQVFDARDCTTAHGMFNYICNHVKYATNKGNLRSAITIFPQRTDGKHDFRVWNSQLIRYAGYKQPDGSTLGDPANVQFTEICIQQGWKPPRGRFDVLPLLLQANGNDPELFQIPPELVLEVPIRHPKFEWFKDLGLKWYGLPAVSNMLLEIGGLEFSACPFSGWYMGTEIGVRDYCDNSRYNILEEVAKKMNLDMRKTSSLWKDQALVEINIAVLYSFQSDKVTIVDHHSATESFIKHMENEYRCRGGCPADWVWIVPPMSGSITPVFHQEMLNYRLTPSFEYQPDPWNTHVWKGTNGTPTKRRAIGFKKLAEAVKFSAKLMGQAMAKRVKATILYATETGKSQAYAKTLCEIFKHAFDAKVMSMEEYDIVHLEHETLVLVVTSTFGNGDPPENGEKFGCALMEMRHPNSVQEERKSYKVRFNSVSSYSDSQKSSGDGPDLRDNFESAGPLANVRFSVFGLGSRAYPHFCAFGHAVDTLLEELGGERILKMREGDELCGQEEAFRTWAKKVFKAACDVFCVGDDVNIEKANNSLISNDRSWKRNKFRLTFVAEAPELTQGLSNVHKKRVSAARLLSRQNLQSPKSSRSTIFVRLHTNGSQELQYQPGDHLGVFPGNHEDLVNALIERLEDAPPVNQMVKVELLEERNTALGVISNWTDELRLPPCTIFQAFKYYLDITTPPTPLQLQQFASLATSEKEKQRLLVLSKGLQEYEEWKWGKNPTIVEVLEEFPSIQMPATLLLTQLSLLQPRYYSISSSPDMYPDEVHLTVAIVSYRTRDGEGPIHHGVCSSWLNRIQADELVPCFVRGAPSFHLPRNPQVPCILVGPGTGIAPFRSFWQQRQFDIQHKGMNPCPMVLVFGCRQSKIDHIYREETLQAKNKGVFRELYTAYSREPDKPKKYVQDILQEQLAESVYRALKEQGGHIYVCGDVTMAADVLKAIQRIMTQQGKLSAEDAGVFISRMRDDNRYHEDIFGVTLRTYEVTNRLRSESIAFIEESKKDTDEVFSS

concentration-dependent inhibition of bNOS | SMILES
up to 99% | CN(C)CCCC(=O)c1ccc(-c2ccc(Br)cc2)cc1 [4′-(4-bromophenyl)-4-dimethylaminobutyrophenone hydrochloride]
up to 88% | CN(C)CCC(=O)c1ccc(-c2ccc(Br)cc2)cc1 [4′-(4-bromophenyl)-3-dimethylaminopropiophenone hydrochloride]
